From publication PMC5639694 (Journal of medicinal chemistry, 2017)
“Also recorded” adds a separate entry of the source. Each block holds one molecule with its values, some of them ahead of it. Square brackets hold non-standard residues; d marks the D form. Peptide text beside a SMILES is read from it. Dap = NC[C@H](N)C(=O)O

Tests used:
[1] = target: mouse melanocortin 1 receptor (mouse) (UniProt Q01727)
[2] = target: mouse melanocortin 4 receptor (mouse) (UniProt P56450)
[3] = target: mouse melanocortin 5 receptor (mouse) (UniProt P41149)
mMC4R = mMC4R (Mus musculus, UniProt P56450); test: AlphaScreen cAMP agonist assay, HEK293 cells stably expressing mMC4R; settings: for mMC4R agonist activity/efficacy in words: concentrations up to 100 μM, full agonist = >90% maximal NDP-MSH stimulation; for selectivity for the mMC4R over the mMC3R: agonist potency ratio
mMC5R = mMC5R (Mus musculus, UniProt P41149); test: AlphaScreen cAMP agonist assay, HEK293 cells stably expressing mMC5R; settings: for selectivity for the mMC5R over the mMC3R: agonist potency ratio; for mMC5R agonist activity/efficacy in words: concentrations up to 100 μM, full agonist = >90% maximal NDP-MSH stimulation
mMC3R = mMC3R (Mus musculus, UniProt P33033); test: AlphaScreen cAMP agonist assay, HEK293 cells stably expressing mMC3R; settings: for mMC3R agonist activity/efficacy in words: concentrations up to 100 μM, full agonist = >90% maximal NDP-MSH stimulation; for mMC3R partial agonist, percent maximal NDP stimulation: PA, relative to maximal NDP-MSH response
mMC1R = mMC1R (Mus musculus, UniProt Q01727); test: AlphaScreen cAMP agonist assay, HEK293 cells stably expressing mMC1R; settings: for selectivity for the mMC1R over the mMC3R: agonist potency ratio; for mMC1R agonist activity/efficacy in words: full agonist = >90% maximal NDP-MSH stimulation
Sequence of mMC1R (Q01727 whole entry): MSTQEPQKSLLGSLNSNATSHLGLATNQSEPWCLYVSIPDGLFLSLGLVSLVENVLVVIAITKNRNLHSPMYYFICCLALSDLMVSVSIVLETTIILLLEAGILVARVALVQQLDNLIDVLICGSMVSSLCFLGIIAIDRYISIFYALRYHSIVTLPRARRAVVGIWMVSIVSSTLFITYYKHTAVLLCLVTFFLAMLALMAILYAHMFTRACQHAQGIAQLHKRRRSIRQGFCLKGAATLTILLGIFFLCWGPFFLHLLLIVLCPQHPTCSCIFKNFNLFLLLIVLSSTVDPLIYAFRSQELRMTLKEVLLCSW

Sequence of mouse melanocortin 1 receptor (mouse) (Q01727 whole entry): as above
Sequence of mMC5R (P41149 whole entry): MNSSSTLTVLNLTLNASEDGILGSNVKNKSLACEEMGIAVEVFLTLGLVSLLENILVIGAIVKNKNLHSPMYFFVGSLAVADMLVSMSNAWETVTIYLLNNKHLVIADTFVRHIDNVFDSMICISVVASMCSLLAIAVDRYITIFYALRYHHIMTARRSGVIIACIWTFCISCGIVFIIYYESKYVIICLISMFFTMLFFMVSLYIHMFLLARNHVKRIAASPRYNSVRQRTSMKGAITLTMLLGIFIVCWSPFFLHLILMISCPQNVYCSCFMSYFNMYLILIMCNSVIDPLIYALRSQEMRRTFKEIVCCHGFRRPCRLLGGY
Sequence of mouse melanocortin 5 receptor (mouse) (P41149 whole entry): as above
Sequence of mMC4R (P56450 whole entry): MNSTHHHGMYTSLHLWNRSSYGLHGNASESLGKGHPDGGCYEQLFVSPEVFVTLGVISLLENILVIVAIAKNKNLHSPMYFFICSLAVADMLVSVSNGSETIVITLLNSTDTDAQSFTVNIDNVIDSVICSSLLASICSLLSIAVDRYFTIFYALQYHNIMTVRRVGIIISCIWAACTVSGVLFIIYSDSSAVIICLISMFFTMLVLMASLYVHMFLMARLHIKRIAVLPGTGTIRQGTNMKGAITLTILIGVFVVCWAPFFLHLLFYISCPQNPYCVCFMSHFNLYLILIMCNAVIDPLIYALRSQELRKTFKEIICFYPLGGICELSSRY
Sequence of mouse melanocortin 4 receptor (mouse) (P56450 whole entry): as above
Sequence of mMC3R (P33033 whole entry): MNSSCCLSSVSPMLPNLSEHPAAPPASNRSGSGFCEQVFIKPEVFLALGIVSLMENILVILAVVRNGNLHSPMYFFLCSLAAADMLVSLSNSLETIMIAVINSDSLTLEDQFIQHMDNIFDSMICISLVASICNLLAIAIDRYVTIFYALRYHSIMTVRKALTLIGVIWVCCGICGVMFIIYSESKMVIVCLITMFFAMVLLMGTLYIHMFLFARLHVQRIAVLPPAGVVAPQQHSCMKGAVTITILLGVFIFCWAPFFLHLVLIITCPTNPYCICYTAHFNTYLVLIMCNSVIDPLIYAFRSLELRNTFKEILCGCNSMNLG

Molecule: N=C(N)NCCC[C@@H]1NC(=O)[C@@H](Cc2ccccc2)NC(=O)[C@H](Cc2c[nH]cn2)NC(=O)[C@@H]2CCCN2C(=O)[C@H]2CCCN2C(=O)[C@H](Cc2c[nH]c3ccccc23)NC1=O [Peptide 7, c[Pro-His-DPhe-Arg-Trp-DPro]] (cyclo(PH[dF]RW[dP]))
- mMC3R agonist activity/efficacy in words (mMC3R): partially stimulated

Molecule: N=C(N)NCCC[C@@H]1NC(=O)[C@@H](Cc2ccccc2)NC(=O)[C@@H]2CCCN2C(=O)[C@H]2CCCN2C(=O)[C@H](CN)NC(=O)[C@H](Cc2c[nH]c3ccccc23)NC1=O [Peptide 13, c[Pro-DPhe-Arg-Trp-Dap-DPro]] (cyclo(P[dF]RW[Dap][dP]))
- mMC3R agonist activity/efficacy in words (mMC3R): no observable activity; also recorded: did not possess agonist activity; also recorded: no agonist activity
- mMC4R agonist activity/efficacy in words (mMC4R): partially stimulated
- mMC5R agonist activity/efficacy in words (mMC5R): no observable activity; also recorded: unable to stimulate; also recorded: no agonist activity

Molecule: C[C@@H]1NC(=O)[C@H](CC(N)=O)NC(=O)[C@H](Cc2c[nH]c3ccccc23)NC(=O)[C@H](CCCNC(=N)N)NC(=O)[C@@H](Cc2ccccc2)NC(=O)[C@@H]2CCCN2C(=O)[C@H]2CCCN2C1=O [Peptide 9, c[Pro-DPhe-Arg-Trp-Asn-Ala-DPro]] (cyclo(P[dF]RWNA[dP]))
- selectivity for the mMC1R over the mMC3R (mMC1R): > 100 fold
- mMC1R agonist activity/efficacy in words (mMC1R): full mMC1R agonists
- mMC3R agonist activity/efficacy in words (mMC3R): partially stimulated
- selectivity for the mMC5R over the mMC3R (mMC5R): > 1000 fold

Molecule: C[C@@H]1NC(=O)[C@H](CN)NC(=O)[C@H](Cc2c[nH]c3ccccc23)NC(=O)[C@H](CCCNC(=N)N)NC(=O)[C@@H](Cc2ccccc2)NC(=O)[C@@H]2CCCN2C(=O)[C@H]2CCCN2C(=O)[C@H](Cc2ccccc2)NC1=O [Peptide 11, c[Pro-DPhe-Arg-Trp-Dap-Ala-Phe-DPro]] (cyclo(P[dF]RW[Dap]AF[dP]))
- mMC1R agonist activity/efficacy in words (mMC1R): partial agonist
- mMC3R agonist activity/efficacy in words (mMC3R): partial agonist
- mMC4R agonist activity/efficacy in words (mMC4R): full agonist efficacy
- mMC5R agonist activity/efficacy in words (mMC5R): full agonist efficacy

Molecule: N=C(N)NCCC[C@@H]1NC(=O)[C@@H](Cc2ccccc2)NC(=O)[C@H](Cc2c[nH]cn2)NC(=O)[C@@H]2CCCN2C(=O)[C@H]2CCCN2C(=O)[C@H](CC(N)=O)NC(=O)[C@H](Cc2c[nH]c3ccccc23)NC1=O [Peptide 3, c[Pro-His-DPhe-Arg-Trp-Asn-DPro]] (cyclo(PH[dF]RWN[dP]))
- decreased agonist potency at mMC1R relative to 1 (mMC1R): 140 fold
- mMC3R partial agonist, percent maximal NDP stimulation (mMC3R): 65%
- decreased agonist potency at mMC4R relative to 1 (mMC4R): 120 fold
- decreased agonist potency at mMC5R relative to 1 (mMC5R): 37 fold

Molecule: C[C@@H]1NC(=O)[C@H](CC(N)=O)NC(=O)[C@H](Cc2c[nH]c3ccccc23)NC(=O)[C@H](CCCNC(=N)N)NC(=O)[C@@H](Cc2ccccc2)NC(=O)[C@H](Cc2c[nH]cn2)NC(=O)[C@@H]2CCCN2C(=O)[C@H]2CCCN2C(=O)[C@H](Cc2ccccc2)NC1=O [Peptide 1, c[Pro-His-DPhe-Arg-Trp-Asn-Ala-Phe-DPro]] (cyclo(H[dF]RWNAF[dP]P))
- mMC4R agonist activity/efficacy in words (mMC4R): full agonists

Molecule: N=C(N)NCCC[C@@H]1NC(=O)[C@@H](Cc2ccccc2)NC(=O)[C@H](Cc2c[nH]cn2)NC(=O)[C@@H]2CCCN2C(=O)[C@H]2CCCN2C(=O)[C@H](CN)NC(=O)[C@H](Cc2c[nH]c3ccccc23)NC1=O [Peptide 6, c[Pro-His-DPhe-Arg-Trp-Dap-DPro]] (cyclo(PH[dF]RW[Dap][dP]))
- selectivity for the mMC1R over the mMC3R (mMC1R): > 100 fold
- decreased agonist potency at mMC1R relative to 5 (mMC1R; relative to 5): 420 fold
- mMC3R agonist activity/efficacy in words (mMC3R): partially stimulated
- decreased agonist potency at mMC4R relative to 5 (mMC4R; relative to 5): 590 fold
- selectivity for the mMC5R over the mMC3R (mMC5R): > 100 fold
- decreased agonist potency at mMC5R relative to 5 (mMC5R; relative to 5): 1,100 fold

Molecule: C[C@@H]1NC(=O)[C@H](CN)NC(=O)[C@H](Cc2c[nH]c3ccccc23)NC(=O)[C@H](CCCNC(=N)N)NC(=O)[C@@H](Cc2ccccc2)NC(=O)[C@H](Cc2c[nH]cn2)NC(=O)[C@@H]2CCCN2C(=O)[C@H]2CCCN2C(=O)[C@H](Cc2ccccc2)NC1=O [Peptide 4, c[Pro-His-DPhe-Arg-Trp-Dap-Ala-Phe-DPro]] (cyclo(PH[dF]RW[Dap]AF[dP]))
- mMC1R agonist activity/efficacy in words (mMC1R): full agonist
- decreased agonist potency at mMC1R relative to 1 (mMC1R): 70 fold
- mMC3R agonist activity/efficacy in words (mMC3R): full agonist
- mMC4R partial agonist, percent maximal NDP stimulation (mMC4R; PA, relative to maximal NDP-MSH response): 70%
- mMC4R agonist activity/efficacy in words (mMC4R): partial agonist

Molecule: C[C@@H]1NC(=O)[C@H](CC(N)=O)NC(=O)[C@H](Cc2c[nH]c3ccccc23)NC(=O)[C@H](CCCNC(=N)N)NC(=O)[C@@H](Cc2ccccc2)NC(=O)[C@H](Cc2c[nH]cn2)NC(=O)[C@@H]2CCCN2C(=O)[C@H]2CCCN2C1=O [Peptide 2, c[Pro-His-DPhe-Arg-Trp-Asn-Ala-DPro]] (cyclo(PH[dF]RWNA[dP]))
- decreased agonist potency at mMC1R relative to 1 (mMC1R): 34 fold
- mMC3R partial agonist, percent maximal NDP stimulation (mMC3R): 85%
- decreased agonist potency at mMC4R relative to 1 (mMC4R): 21 fold
- decreased agonist potency at mMC5R relative to 1 (mMC5R): 5 fold

Molecule: C[C@@H]1NC(=O)[C@H](CN)NC(=O)[C@H](Cc2c[nH]c3ccccc23)NC(=O)[C@H](CCCNC(=N)N)NC(=O)[C@@H](Cc2ccccc2)NC(=O)[C@@H]2CCCN2C(=O)[C@H]2CCCN2C1=O [Peptide 12, c[Pro-DPhe-Arg-Trp-Dap-Ala-DPro]] (cyclo(P[dF]RW[Dap]A[dP]))
- mMC1R agonist activity/efficacy in words (mMC1R): full agonist efficacy; also recorded: full mMC1R agonists
- mMC3R agonist activity/efficacy in words (mMC3R): partially stimulated
- selectivity for the mMC4R over the mMC3R (mMC4R): > 300 fold
- selectivity for the mMC5R over the mMC3R (mMC5R): > 1000 fold

B3: c[Pro-DPhe-Arg-Trp-Asn-Ala-Phe-DPro] (peptide)
peptide: cyclo(P[dF]RWNAF[dP])
SMILES: C[C@@H]1NC(=O)[C@H](CC(N)=O)NC(=O)[C@H](Cc2c[nH]c3ccccc23)NC(=O)[C@H](CCCNC(=N)N)NC(=O)[C@@H](Cc2ccccc2)NC(=O)[C@@H]2CCCN2C(=O)[C@H]2CCCN2C(=O)[C@H](Cc2ccccc2)NC1=O
- agonist EC50 (cAMP AlphaScreen, HEK293 cells stably expressing the receptor) [2]: 130 nM

Molecule: cyclo(PH[dF]RWN[dP]) [c[Pro-His-DPhe-Arg-Trp-Asn-DPro]]
- agonist EC50 (cAMP AlphaScreen, HEK293 cells stably expressing the receptor) [2]: 170 nM
- agonist EC50 (cAMP AlphaScreen, HEK293 cells stably expressing the receptor) [3]: 16.8 nM

Now from value to molecule, other results behind:

- agonist EC50 (cAMP AlphaScreen, HEK293 cells stably expressing the receptor) [1]: 460 nM
- agonist EC50 (cAMP AlphaScreen, HEK293 cells stably expressing the receptor) [2]: 950 nM
- agonist EC50 (cAMP AlphaScreen, HEK293 cells stably expressing the receptor) [3]: 330 nM
Molecule: cyclo(PH[dF]RW[Dap][dP])

- selectivity for the mMC5R over the mMC3R (mMC5R): > 100 fold
Molecule: C[C@@H]1NC(=O)[C@H](CN)NC(=O)[C@H](Cc2c[nH]c3ccccc23)NC(=O)[C@H](CCCNC(=N)N)NC(=O)[C@@H](Cc2ccccc2)NC(=O)[C@H](Cc2c[nH]cn2)NC(=O)[C@@H]2CCCN2C(=O)[C@H]2CCCN2C1=O [Peptide 5, c[Pro-His-DPhe-Arg-Trp-Dap-Ala-DPro]] (cyclo(H[dF]RW[Dap]A[dP]P))
- mMC4R agonist activity/efficacy in words (mMC4R): fully stimulate; also recorded: full agonists

- agonist EC50 (cAMP AlphaScreen, HEK293 cells stably expressing the receptor) [1]: 1.1 nM
- agonist EC50 (cAMP AlphaScreen, HEK293 cells stably expressing the receptor) [2]: 1.6 nM
Molecule: cyclo(PH[dF]RW[Dap]A[dP])

- mMC5R agonist activity/efficacy in words (mMC5R): partially stimulated
Molecule: N=C(N)NCCC[C@@H]1NC(=O)[C@@H](Cc2ccccc2)NC(=O)[C@@H]2CCCN2C(=O)[C@H]2CCCN2C(=O)[C@H](CC(N)=O)NC(=O)[C@H](Cc2c[nH]c3ccccc23)NC1=O [Peptide 10, c[Pro-DPhe-Arg-Trp-Asn-DPro]] (cyclo(P[dF]RWN[dP]))
- mMC3R agonist activity/efficacy in words (mMC3R): no agonist activity; also recorded: did not possess agonist activity

- agonist EC50 (cAMP AlphaScreen, HEK293 cells stably expressing the receptor) [2]: 150 nM
- agonist EC50 (cAMP AlphaScreen, HEK293 cells stably expressing the receptor) [3]: 48 nM
Molecule: cyclo(P[dF]RW[Dap]A[dP])

- selectivity for the mMC1R over the mMC3R (mMC1R): > 100 fold
- mMC1R agonist activity/efficacy in words (mMC1R): full mMC1R agonists
- decreased agonist potency at mMC1R relative to 1 (mMC1R): 1140 fold
- mMC3R agonist activity/efficacy in words (mMC3R): partially stimulated
- selectivity for the mMC4R over the mMC3R (mMC4R): > 300 fold
- decreased agonist potency at mMC4R relative to 1 (mMC4R): 90 fold
- selectivity for the mMC5R over the mMC3R (mMC5R): > 1000 fold
- decreased agonist potency at mMC5R relative to 1 (mMC5R): 90 fold
Molecule: C[C@@H]1NC(=O)[C@H](CC(N)=O)NC(=O)[C@H](Cc2c[nH]c3ccccc23)NC(=O)[C@H](CCCNC(=N)N)NC(=O)[C@@H](Cc2ccccc2)NC(=O)[C@@H]2CCCN2C(=O)[C@H]2CCCN2C(=O)[C@H](Cc2ccccc2)NC1=O [Peptide 8, c[Pro-DPhe-Arg-Trp-Asn-Ala-Phe-DPro]] (cyclo(P[dF]RWNAF[dP]))

- agonist EC50 (cAMP AlphaScreen, HEK293 cells stably expressing the receptor) [3]: 46 nM
Molecule: cyclo(P[dF]RW[Dap]AF[dP])

- agonist EC50 (cAMP AlphaScreen, HEK293 cells stably expressing the receptor) [1]: 1800 nM
B1: c[Pro-DPhe-Arg-Trp-DPro] (peptide)
peptide: cyclo(P[dF]RW[dP])
SMILES: N=C(N)NCCC[C@@H]1NC(=O)[C@@H](Cc2ccccc2)NC(=O)[C@@H]2CCCN2C(=O)[C@H]2CCCN2C(=O)[C@H](Cc2c[nH]c3ccccc23)NC1=O

- agonist EC50 (cAMP AlphaScreen, HEK293 cells stably expressing the receptor) [2]: 420 nM
B2: c[Pro-DPhe-Arg-Trp-Asn-Ala-DPro] (peptide)
peptide: cyclo(P[dF]RWNA[dP])
SMILES: C[C@@H]1NC(=O)[C@H](CC(N)=O)NC(=O)[C@H](Cc2c[nH]c3ccccc23)NC(=O)[C@H](CCCNC(=N)N)NC(=O)[C@@H](Cc2ccccc2)NC(=O)[C@@H]2CCCN2C(=O)[C@H]2CCCN2C1=O
